How the values were obtained:
[1] = tested on: parental and platinum-resistant cell lines; test: Comet assay, DNA cross-linking, summary of FIGS. 1-9; type: cell-based; conditions: for DNA cross-linking in parental cell lines: parental (platinum-sensitive) A2780, L1210 and cor123 cell lines; for DNA cross-linking in parental cell lines / DNA cross-linking in platinum-resistant cell lines: FIGS. 1 and 2
Experimental: (§1) Preliminary studies have been carried out to investigate the mechanism underlying this increased sensitivity. These studies were carried out using the Comet assay (described in Appendix C), which measures damage to DNA. The results are shown in FIGS. 1 (cisplatinum), 2 (carboplatinum), 3 to 8 (compounds A-F) and 9 (phenylgoldtriphenylphospine, PAuP).
(§2) DNA damage was measured by the single cell gel electrophoresis (SCGE) assay or “Comet assay”, originally developed by Ostling and Johnson^8. This is a method for determining the extent of DNA damage and repair capacity within individual cells.^9-11 It has previously been shown that this technique can be used to investigate the mechanism of action of different DNA damaging agents.^12
(§3) Cells were trypsinised, suspended in 0.5 ml of ice cold fresh medium and transferred into plastic 24-well dishes prior to embedding in agarose. For the cross-linking studies treated and control samples were chilled on ice (to prevent any repair of DNA damage) and irradiated to a dose of 20 Gy in a Caesium-137 source (0.4 Gy/min). Control, (unirradiated, non-drug treated cells) were maintained on ice in the same manner as treated samples.
(§4) Glass microscope slides, frosted at one end, were pre-coated with 1% normal agarose in distilled water. These slides were allowed to air dry overnight prior to use. A 1% low melting point agarose (LMP) mixture in PBS was melted and held at 45° C. 1 ml of LMP was then added to 0.5 ml of cell suspension on ice and the resultant mixture was pipetted onto a pre-coated glass microscope slide and allowed to set for 1-2 minutes before being transferred to an ice tray. The slides were immersed in ice cold lysis solution (100 mM EDTA, 10 mM Tris-HCl, 1% Triton ×100, 1% DMSO, 2.5M NaCl) for 1 hr, and washed three times by immersion in fresh double distilled water for 15 minutes.
(§5) Slides were then placed onto a flat bed electrophoresis tank and covered (5-6 mm) with alkali unwinding solution (50 mM NaOH, 1 mM EDTA buffered to pH 12.5) and left under subdued lighting for 45 minutes to allow the DNA to unwind before being subjected to electrophoresis at 0.6V/cm for 25 minutes. Each slide was rinsed with 2×1 ml of 0.4M Tris-HCl, pH 8.0 and allowed to dry in air. The dried slides were then rehydrated for 20 minutes with double distilled water, 2×1 ml of propidium iodide solution (2.5 μg/ml) was added and staining was allowed to proceed for 15 minutes. Slides were then immersed in 1 litre of double distilled water for 1 hour to reduce excess background staining. The slides were cover slipped and then examined at 250× magnification under an epifluorescent microscope (Zeiss-Jenamed) using green light from a 50 watt mercury source with a 580 nm reflector and a 590 nm barrier filter set. Images were captured using an attached Sony HAD-1 interline CCD camera and Komet software analysis package (Kinetic Imaging). Twenty-five images from each of two duplicate slides were captured and analysed and the individual “comet moments” as defined by Olive et al^13, were calculated. The total fluorescence of the image represents the amount of DNA present and the length of the image, measured in pixels, represents the length of migration of the DNA. The head and tail areas of the image were identified and the intensity of each was determined. The tail moment is calculated by multiplying the fraction of DNA present in the tail by half the length of the tail.

[2] = tested on: L1210/M1140 cell line; test: Growth inhibition assay (modified MTT); type: cell-based, murine; conditions: five-day MTT
Experimental: (§6) The sensitivities of the cell lines to cisplatinum, carboplatinum, and compounds A-F were determined using a growth inhibition assay which was a modified version of the MTT method (modified version of MTT method described in Appendix B).
(§7) The following is a brief description of the eleven different cell lines used in the growth inhibition assay: • The A2780 cell line (1 in FIGS. 1-9) is a human ovarian cell line which is sensitive to cisplatinum and carboplatinum. […] The cor123/cpr (7) cell line is a modified version of the cor123 cell line which has been modified to be resistant to cisplatinum and carboplatinum. • The ccu24 (8) cell line is an epithelial ovarian cancer cell line, developed at the Christie Hospital from a tumour biopsy, and the ccu24/cpr (9) cell line is a modified version of this cell line which is cisplatinum and carboplatinum resistant. • L1210 (10) is a murine leukemia cell line and L1210/M1140 (11) is its platinum drug resistant subline.
(§8) The cell toxicity studies were performed using a modification of the method MTT.^7 The principle of the assay is to assess the growth inhibitory effect of a drug at various doses over a five-day time course. This assay was performed in 96-well microtitre plates. Cells were seeded at densities of 400-1,000 cells per well, depending on the doubling time of the cell line. All cell dilutions were performed in growth medium containing 10% FCS (foetal calf serum).
(§9) Compounds under investigation were dissolved in DMSO (dimethylsulphoxide). Serial dilutions of compound were made into the cell suspension, ensuring that the proportion of DMSO remained below 0.5%. 200 μl of cells and drug mix was added to the 96-well plates in triplicate. The plates were incubated for five days at 5% CO2 and 37° C. After this time, the plates were removed from the incubator and 50 μl of a 3 mg/ml solution of MTT [3-(4,5-dimethyl-thiazol-2-yl)-2,5-diphenyl tetrazolium bromide] was added to each well and incubated in the same conditions for another 3 hours. The medium from each well was aspirated and the formazan crystals were solubilised in 200 μl of DMSO. The plates were read using a Multiskan platereader at 540 nm and 690 nm. Growth inhibition curves were constructed using mean and standard deviation of the triplicate absorbance values and from these curves the IC50 values were calculated.

[3] = tested on: L1210 cell line; test: Growth inhibition assay (modified MTT); type: cell-based, murine; conditions: five-day MTT
Experimental: as §6, §7, §8, §9

[4] = tested on: A2780cis cell line; test: Growth inhibition assay (modified MTT); type: cell-based, human; conditions: for IC50: A2780cis, five-day MTT
Experimental: as §6, §7, §8, §9

[5] = tested on: ccu24/cpr cell line; test: Growth inhibition assay (modified MTT); type: cell-based, human; conditions: five-day MTT
Experimental: as §6, §7, §8, §9

[6] = tested on: mcp1 cell line; test: Growth inhibition assay (modified MTT); type: cell-based, human; conditions: five-day MTT
Experimental: as §6, §7, §8, §9

[7] = tested on: A2780-S cell line; test: Growth inhibition assay (modified MTT); type: cell-based, human; conditions: five-day MTT
Experimental: as §6, §7, §8, §9

[8] = tested on: ccu24 cell line; test: Growth inhibition assay (modified MTT); type: cell-based, human; conditions: five-day MTT
Experimental: as §6, §7, §8, §9

[9] = tested on: mcp8 cell line; test: Growth inhibition assay (modified MTT); type: cell-based, human; conditions: five-day MTT
Experimental: as §6, §7, §8, §9

[10] = tested on: A2780carb cell line; test: Growth inhibition assay (modified MTT); type: cell-based, human; conditions: for IC50: A2780carb, five-day MTT
Experimental: as §6, §7, §8, §9

[11] = tested on: cor123 cell line; test: Growth inhibition assay (modified MTT); type: cell-based, human; conditions: five-day MTT
Experimental: as §6, §7, §8, §9

[12] = tested on: cor123/cpr cell line; test: Growth inhibition assay (modified MTT); type: cell-based, human; conditions: five-day MTT
Experimental: as §6, §7, §8, §9

[13] = tested on: A2780mcp1; test: Comet assay, DNA crosslinking; type: cell-based, human; conditions: ratio >1 = more cross-linking in parental than in platinum-resistant line
Experimental: as §1
(§10) Table 3 illustrates the results of the following calculation using the DNA cross-linking results obtained in the Comet assays:
as §2, §3, §4, §5

[14] = tested on: A2780/mcp8; test: Comet assay, DNA crosslinking; type: cell-based, human; conditions: ratio >1 = more cross-linking in parental than in platinum-resistant line
Experimental: as §1, §10, §2, §3, §4, §5

[15] = tested on: A2780cis; test: Comet assay, DNA crosslinking; type: cell-based, human; conditions: ratio >1 = more cross-linking in parental than in platinum-resistant line
Experimental: as §1, §10, §2, §3, §4, §5

[16] = tested on: ccu24; test: Comet assay, DNA crosslinking; type: cell-based, human; conditions: ratio >1 = more cross-linking in parental than in platinum-resistant line
Experimental: as §1, §10, §2, §3, §4, §5

[17] = tested on: cor123; test: Comet assay, DNA crosslinking; type: cell-based, human; conditions: ratio >1 = more cross-linking in parental than in platinum-resistant line
Experimental: as §1, §10, §2, §3, §4, §5

[18] = tested on: L1210; test: Comet assay, DNA crosslinking; type: cell-based, murine; conditions: ratio >1 = more cross-linking in parental than in platinum-resistant line
Experimental: as §1, §10, §2, §3, §4, §5

[19] = tested on: A2780carb; test: Comet assay, DNA crosslinking; type: cell-based, human; conditions: ratio >1 = more cross-linking in parental than in platinum-resistant line
Experimental: as §1, §10, §2, §3, §4, §5

[20] = tested on: eleven cell lines; test: Growth inhibition assay (modified MTT), summary over cell lines; type: cell-based, mouse and human; conditions: text reference to Table 1; cell line not stated
Experimental: as §6
as §7, with “subline. […]” for “subline.”
Compounds under investigation were dissolved in DMSO (dimethylsulphoxide). […] The plates were read using a Multiskan platereader at 540 nm and 690 nm. Growth inhibition curves were constructed using mean and standard deviation of the triplicate absorbance values and from these curves the IC50 values were calculated.

[21] = Table 2, further series of assays
[22] = Table 2, further series of assays, A2780/mcp1
[23] = Table 2, further series of assays, A2780/mcp8
[24] = Table 1, first series of assays
[25] = Table 1, first series of assays, mcp1
[26] = Table 1, first series of assays, mcp8

Structure (SMILES) | IC50 [2, 21] | IC50 [3, 21] | IC50 [4, 21] | IC50 [5, 21] | IC50 [6, 22] | IC50 [7, 21] | IC50 [8, 21] | IC50 [9, 23] | IC50 [10, 21] | IC50 [11, 21] | IC50 [12, 21] | IC50 [2, 24] | IC50 [4, 24] | IC50 [7, 24] | DNA crosslinking (Comet) ratio [13] | DNA crosslinking (Comet) ratio [14] | DNA crosslinking (Comet) ratio [15] | DNA crosslinking (Comet) ratio [16] | DNA crosslinking (Comet) ratio [17] | DNA crosslinking (Comet) ratio [18] | other results
N.N.O=C([O-])C1(C(=O)[O-])CCC1.[Pt+2] [Carboplatin, carboplatin, reference compound] | 47.8 µM | 15.3 µM | 34.6 µM | 27.2 µM | 24.8 µM | 1.59 µM | 5.82 µM | 26.8 µM | 32.1 µM | 5.35 µM | 29.8 µM | – | – | – | – | – | – | – | – | – | DNA cross-linking in parental cell lines [1]: extensive DNA cross-linking; DNA cross-linking in platinum-resistant cell lines [1]: much less cross-linking
N.N.[Cl][Pt][Cl] [Cisplatin, cisplatin, reference compound] | – | – | – | – | – | – | – | – | – | – | – | 44.9 µM | 30.5 µM | 1.32 µM | 5.40 | 5.70 | 5.65 | 4.65 | 5.72 | 3.37 | DNA cross-linking in parental cell lines [1]: extensive DNA cross-linking; DNA cross-linking in platinum-resistant cell lines [1]: much less cross-linking; DNA crosslinking (Comet) ratio, all resistant cell lines ([1]; summary of Table 3): a ratio greater than unity; IC50 [3, 24]: 12.1 µM; IC50 [5, 24]: 24.9 µM; IC50 [6, 25]: 19.9 µM; IC50 [8, 24]: 4.32 µM; IC50 [9, 26]: 24.4 µM; IC50 [10, 24]: 27.6 µM; IC50 [11, 24]: 3.43 µM; IC50 [12, 24]: 26.7 µM
[Au+].[c-]1ccccc1.c1ccc([PH+](c2ccccc2)c2ccccc2)cc1 [PAuP, phenylgoldtriphenylphospine, reference compound] | – | – | – | – | – | – | – | – | – | – | – | – | > 10 µM | > 10 µM | 1.33 | 1.33 | 1.00 | 1.00 | 0.75 | 1.33 | level of cross-linking ([1]; FIG. 9, compared to the di-gold compounds): low compared to the di-gold compounds; DNA crosslinking (Comet) ratio [19]: 1.33; ID50 (cytotoxicity) [20]: > 10000 mu
c1ccc([PH]([Au][c]2cc[c]([Au][PH](c3ccccc3)(c3ccccc3)c3ccccc3)cc2)(c2ccccc2)c2ccccc2)cc1 [A, 1,4-bis-(triphenylphospinogold(I))benzene] | 0.0092 µM | 0.0416 µM | 0.0005 µM | 0.0064 µM | 0.0035 µM | 0.0165 µM | 0.0283 µM | 0.0046 µM | 0.0009 µM | 0.0222 µM | 0.0045 µM | 0.0064 µM | 0.0002 µM | 0.0134 µM | 0.59 | 0.60 | 0.50 | 0.40 | 0.56 | 0.69 | IC50 [3, 24]: 0.0383 µM; sensitivity of A2780cis relative to parental A2780-S line ([4]; from IC50 0.2 nM vs 13.4 nM): over sixty-times more sensitive; IC50 [5, 24]: 0.0036 µM; IC50 [6, 25]: 0.0005 µM; IC50 [8, 24]: 0.0253 µM; IC50 [9, 26]: 0.0006 µM; IC50 [10, 24]: 0.0006 µM; sensitivity of A2780carb relative to parental A2780-S line ([10]; from IC50 0.6 nM vs 13.4 nM): over twenty-times more sensitive; IC50 [11, 24]: 0.0193 µM; IC50 [12, 24]: 0.0015 µM; DNA crosslinking (Comet) ratio [19]: 0.53
c1ccc([PH]([Au][CH2]c2ccc[c]([Au][PH](c3ccccc3)(c3ccccc3)c3ccccc3)c2)(c2ccccc2)c2ccccc2)cc1 [E] | 0.0085 µM | 0.0356 µM | 0.0007 µM | 0.0054 µM | 0.0039 µM | 0.0112 µM | 0.0135 µM | 0.0047 µM | 0.0009 µM | 0.0211 µM | 0.0044 µM | 0.0053 µM | 0.0004 µM | 0.0089 µM | 0.41 | 0.48 | 0.39 | 0.46 | 0.43 | 0.40 | IC50 [3, 24]: 0.0325 µM; IC50 [5, 24]: 0.0024 µM; IC50 [6, 25]: 0.0009 µM; IC50 [8, 24]: 0.0102 µM; IC50 [9, 26]: 0.0009 µM; IC50 [10, 24]: 0.0006 µM; IC50 [11, 24]: 0.0177 µM; IC50 [12, 24]: 0.0014 µM; DNA crosslinking (Comet) ratio [19]: 0.40
